Usually Ki stands for the dissociation constant of the complex between target and ligand, obtained from inhibition or displacement. A lower Ki goes with a stronger hold on the target. By IC50 is commonly meant the midpoint of a concentration-inhibition curve.

This is an account of results in ChEMBL document CHEMBL1131533, “Development of a three-dimensional CysLT1 (LTD4) antagonist model with an incorporated amino acid residue from the receptor” (J Med Chem, 1998).

For this assay, the target named is T1, Cysteinyl leukotriene receptor 1 (Cavia porcellus, UniProt Q2NNR5).
T1 sequence (Q2NNR5 whole entry): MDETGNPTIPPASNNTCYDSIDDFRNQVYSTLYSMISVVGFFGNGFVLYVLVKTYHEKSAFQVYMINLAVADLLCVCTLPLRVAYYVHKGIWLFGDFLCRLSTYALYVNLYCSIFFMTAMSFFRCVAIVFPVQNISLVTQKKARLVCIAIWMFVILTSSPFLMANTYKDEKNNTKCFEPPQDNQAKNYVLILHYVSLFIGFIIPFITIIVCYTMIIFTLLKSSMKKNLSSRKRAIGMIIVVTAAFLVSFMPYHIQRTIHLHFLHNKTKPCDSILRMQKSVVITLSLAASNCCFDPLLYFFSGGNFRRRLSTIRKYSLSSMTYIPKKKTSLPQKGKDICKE
Nature of the assay: Binding affinity towards Cysteinyl leukotriene D4 receptor (cysLT1) was measured by the displacement of [3H]LTD4 radioligand.

Take `CCC(CC)(CC(=O)Nc1cccc(/C=C/c2nc(C3CCC3)cs2)c1)C(=O)O`: the affinity, expressed as Ki, was 6.4 nM. `O=C(O)c1cccc2c(=O)cc(-c3cccc(/C=C/c4ccc5ccccc5n4)c3)oc12`: the IC50 was determined as 17 nM. The molecule `O=C(Nc1cccc2c(=O)cc(-c3nn[nH]n3)oc12)c1ccc(OCc2ccc3ccccc3n2)cc1` showed an inhibition constant Ki of 1.1 nM. `O=c1cc(-c2nnn[nH]2)oc2cc(OCc3cccc(OCc4ccc5ccccc5n4)c3)ccc12`: the affinity corresponds to a Ki of 3 nM.

As for `O=c1cc(-c2nnn[nH]2)oc2cc(/C=C/c3cccc(OCc4ccc5ccccc5n4)c3)ccc12`, the Ki was found to be 2.5 nM.
